# Source: ChEMBL document CHEMBL1795302, “Synthesis and discovery of novel hexacyclic cage compounds as inhibitors of acetylcholinesterase” (Bioorg Med Chem Lett, 2011)
# Target: Acetylcholinesterase (Electrophorus electricus, UniProt O42275)
# Assay: Inhibition of electric eel AChE by modified Ellman method
# Acetylcholinesterase, sequence (O42275 whole entry): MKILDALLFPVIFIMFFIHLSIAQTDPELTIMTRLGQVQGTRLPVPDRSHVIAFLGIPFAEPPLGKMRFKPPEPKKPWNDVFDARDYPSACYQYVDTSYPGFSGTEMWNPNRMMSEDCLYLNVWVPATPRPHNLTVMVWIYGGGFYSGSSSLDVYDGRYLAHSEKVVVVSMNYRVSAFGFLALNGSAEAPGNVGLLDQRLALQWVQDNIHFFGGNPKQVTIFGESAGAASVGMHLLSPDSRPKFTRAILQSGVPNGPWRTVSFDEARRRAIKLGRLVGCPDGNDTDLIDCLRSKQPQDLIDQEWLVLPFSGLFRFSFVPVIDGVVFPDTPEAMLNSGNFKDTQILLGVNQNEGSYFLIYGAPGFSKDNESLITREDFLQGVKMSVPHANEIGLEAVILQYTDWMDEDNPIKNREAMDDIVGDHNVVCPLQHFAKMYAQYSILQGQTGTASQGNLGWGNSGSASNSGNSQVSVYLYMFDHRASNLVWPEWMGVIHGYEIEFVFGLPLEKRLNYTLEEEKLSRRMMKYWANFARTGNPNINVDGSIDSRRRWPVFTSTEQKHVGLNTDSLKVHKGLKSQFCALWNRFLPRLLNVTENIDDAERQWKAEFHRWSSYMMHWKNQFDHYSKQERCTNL
row,Compound,IC50
1,O=C1/C(=C/c2ccccc2)CN2CC13[C@@H](c1ccccc1)C1CCCN1C31C(=O)c3ccccc3C21O (stereo not given in full),6.86 µM
2,Cc1ccccc1/C=C1\CN2CC3(C1=O)[C@@H](c1ccccc1C)C1CCCN1C31C(=O)c3ccccc3C21O (stereo not given in full),1.2 µM
3,O=C1/C(=C/c2ccccc2Cl)CN2CC13[C@@H](c1ccccc1Cl)C1CCCN1C31C(=O)c3ccccc3C21O (stereo not given in full),5.12 µM
4,O=C1/C(=C/c2ccc(Cl)cc2Cl)CN2CC13[C@@H](c1ccc(Cl)cc1Cl)C1CCCN1C31C(=O)c3ccccc3C21O (stereo not given in full),12.2 µM
5,O=C1/C(=C/c2cccc([N+](=O)[O-])c2)CN2CC13[C@@H](c1cccc([N+](=O)[O-])c1)C1CCCN1C31C(=O)c3ccccc3C21O (stereo not given in full),6.2 µM
6,Cc1ccc(/C=C2\CN3CC4(C2=O)[C@@H](c2ccc(C)cc2)C2CCCN2C42C(=O)c4ccccc4C32O)cc1 (stereo not given in full),0.72 µM
7,O=C1/C(=C/c2ccc(Cl)cc2)CN2CC13[C@@H](c1ccc(Cl)cc1)C1CCCN1C31C(=O)c3ccccc3C21O (stereo not given in full),11.2 µM
8,O=C1/C(=C/c2ccc(Br)cc2)CN2CC13[C@@H](c1ccc(Br)cc1)C1CCCN1C31C(=O)c3ccccc3C21O (stereo not given in full),9.26 µM
9,O=C1/C(=C/c2ccc(F)cc2)CN2CC13[C@@H](c1ccc(F)cc1)C1CCCN1C31C(=O)c3ccccc3C21O (stereo not given in full),11.3 µM
10,O=C1/C(=C/c2cccc3ccccc23)CN2CC13[C@@H](c1cccc4ccccc14)C1CCCN1C31C(=O)c3ccccc3C21O (stereo not given in full),2.12 µM
